Assay results from patent US20240415786A1, “COMPOSITIONS AND METHODS USING AN AUTOPHAGY INDUCER TO ENHANCE INTERMITTENT FASTING” (SOCIETE DES PRODUITS NESTLE S.A., priority 2021, published 2024).

How the values were obtained:
C. elegans [1] = experiment: Worm survival assay on solid agar plate; type: in vivo; conditions: thymol 50 M (so in the source), solid agar plates, n=60 per group, vs vehicle (DMSO 1%), log rank test
Procedure: C. elegans strains were cultured at 20° C. on nematode growth media agar plates seeded with E. coli strain OP50. Thymol was dissolved in DMSO and added at the indicated concentrations just before pouring the plates. Worms were exposed to compounds during the full life from eggs until death. To ensure a permanent exposure to the compound, plates were changed twice a week. The control population was treated with the corresponding concentration of DMSO at 1%. For lifespan measurements, parental F0 L4 worms were grown to reach adulthood and lay eggs on the treatment plates. The derived F1 worms were therefore exposed to compounds during the full life from eggs until death. Adults were daily scored manually as dead or alive. A worm was considered dead if it was not moving spontaneously and it was not responding to a touch on the head. The control population was treated with the corresponding concentration of DMSO at 1%.

C. elegans [2] = experiment: Worm survival assay in microfluidics; type: in vivo; conditions: thymol 50 μM, worms treated in microfluidics (conditions mimicking IF), vs vehicle, log rank test
Procedure: A worm suspension is first injected into a microfluidic device. The geometry of the device is optimized for retaining inside the worm culture chamber only adult worms by simply selecting the correct flow rate for the sample injection. Upon isolation of a defined worm population inside the chamber, worms are cultured and treated on-chip with thymol at controlled temperature of 20° C. Worm culture is maintained in the chamber by the perfusion of E. coli. The microfluidic chip is integrated onto an inverted microscope integrated with a camera that continuously records videos (every 10 hours). Images are longitudinally analyzed by different parameters that include readouts of body bends frequency, velocity, curvature and amplitude of the movement at the head, tail and middle of the body, which automatically provide information about worms health span and vitality.

For Cc1ccc(C(C)C)c(O)c1 [thymol], the effect on lifespan (C. elegans [1]) was “no significant effects on lifespan” and the effect on lifespan (C. elegans [2]) was “increases lifespan”.
